The target of experiment [1] is T1, α4β1 (Homo sapiens, UniProt P05556+P13612). Briefly: Ramos Cell Adhesion Assay (α4β1 Mediated Adhesion/VCAM-1). The experiment is classed as cell-based. Also on record: Ramos Cell Adhesion Assay (α4β1 Mediated Adhesion/VCAM-1); endogenous in cells; host or cells: Ramos cells. To be noted: Ramos cells adhering to recombinant hVCAM-1; read-out: α4β1 IC50. The procedure:
Ramos Cell Adhesion Assay (α4β1 Mediated Adhesion/VCAM-1)
Immulon 96 well plates (Dynex) were coated with 100 μL recombinant hVCAM-1 at 4.0 μg/mL in 0.05 M NaCO3 buffer pH 9.0 overnight at 4° C. (R&D Systems). Plates were washed 3 times in PBS with 1% BSA and blocked for 1 h @ room temperature in this buffer. PBS was removed and compounds to be tested (50 μL) were added at 2× concentration. Ramos cells, (50 μL at 2×10^6/mL) labeled with 5 μM Calcein AM (Molecular Probes) for 1 h at 37° C., were added to each well and allowed to adhere for 1 h at room temperature. Plates were washed 3× in PBS+1% BSA and cells were lysed for 15 minutes in 100 μL of 1 M Tris pH 8.0 with 1% SDS. The plate was read at 485 nm excitation and 530 nm emission.

The target in another experiment is T2, human α4β7 integrin (Homo sapiens, UniProt P13612+P26010).
T2 construct: expressed in transfected cells; host or cells: K562 cells, stably transfected
T2 sequence (P13612 34-1032): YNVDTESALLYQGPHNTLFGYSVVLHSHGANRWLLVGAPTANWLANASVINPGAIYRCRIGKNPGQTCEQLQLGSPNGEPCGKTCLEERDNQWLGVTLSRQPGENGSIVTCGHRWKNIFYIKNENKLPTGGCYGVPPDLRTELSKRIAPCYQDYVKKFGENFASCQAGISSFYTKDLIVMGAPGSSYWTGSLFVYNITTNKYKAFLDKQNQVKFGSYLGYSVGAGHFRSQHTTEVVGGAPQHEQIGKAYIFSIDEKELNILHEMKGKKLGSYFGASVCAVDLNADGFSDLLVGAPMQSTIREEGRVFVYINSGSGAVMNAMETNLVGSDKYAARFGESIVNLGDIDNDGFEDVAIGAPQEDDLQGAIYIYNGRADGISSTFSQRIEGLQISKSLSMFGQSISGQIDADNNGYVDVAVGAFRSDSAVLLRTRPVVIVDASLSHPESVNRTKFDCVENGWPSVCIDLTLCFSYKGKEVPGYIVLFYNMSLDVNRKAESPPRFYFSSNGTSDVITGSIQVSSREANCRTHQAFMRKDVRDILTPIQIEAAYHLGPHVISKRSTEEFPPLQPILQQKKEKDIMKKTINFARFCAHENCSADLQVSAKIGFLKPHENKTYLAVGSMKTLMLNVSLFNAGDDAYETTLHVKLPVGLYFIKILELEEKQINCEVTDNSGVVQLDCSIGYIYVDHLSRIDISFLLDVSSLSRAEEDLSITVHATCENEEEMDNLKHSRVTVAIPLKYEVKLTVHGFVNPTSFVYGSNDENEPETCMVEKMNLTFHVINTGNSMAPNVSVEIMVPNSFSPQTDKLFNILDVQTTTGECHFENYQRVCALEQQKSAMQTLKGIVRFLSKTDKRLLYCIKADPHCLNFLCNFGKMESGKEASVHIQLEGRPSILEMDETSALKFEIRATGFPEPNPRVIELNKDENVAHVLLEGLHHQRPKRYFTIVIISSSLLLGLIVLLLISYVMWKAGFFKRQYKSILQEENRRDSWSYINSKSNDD
T2 sequence (P26010 20-798): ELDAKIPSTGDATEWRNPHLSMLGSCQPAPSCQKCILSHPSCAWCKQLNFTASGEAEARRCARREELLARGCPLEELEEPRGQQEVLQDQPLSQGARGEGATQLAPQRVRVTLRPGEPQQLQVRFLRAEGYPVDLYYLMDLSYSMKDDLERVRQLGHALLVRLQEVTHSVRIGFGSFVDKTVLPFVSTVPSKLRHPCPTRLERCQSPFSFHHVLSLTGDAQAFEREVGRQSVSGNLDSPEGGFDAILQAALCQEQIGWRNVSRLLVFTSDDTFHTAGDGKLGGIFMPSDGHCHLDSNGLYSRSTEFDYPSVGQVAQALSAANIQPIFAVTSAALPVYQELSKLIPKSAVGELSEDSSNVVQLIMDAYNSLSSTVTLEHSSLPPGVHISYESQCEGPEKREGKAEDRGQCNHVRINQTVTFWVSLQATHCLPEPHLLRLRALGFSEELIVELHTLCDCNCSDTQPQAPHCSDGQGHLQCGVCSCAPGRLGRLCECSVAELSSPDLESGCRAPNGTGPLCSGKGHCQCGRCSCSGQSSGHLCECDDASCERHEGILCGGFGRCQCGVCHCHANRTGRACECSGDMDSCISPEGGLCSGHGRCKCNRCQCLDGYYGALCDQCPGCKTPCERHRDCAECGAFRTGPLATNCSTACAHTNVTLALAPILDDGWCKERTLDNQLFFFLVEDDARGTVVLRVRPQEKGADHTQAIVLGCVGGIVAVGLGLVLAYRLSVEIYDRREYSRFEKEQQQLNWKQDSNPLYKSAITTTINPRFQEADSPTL
Description: α4β7-K562 Cell Adhesion Assay (α4β7 Mediated Adhesion/MAdCAM-1). The format is cell-based. The note with it: K562 cells expressing human α4β7 adhering to FLAG-hMAdCAM-1, 1 mM Mn2+; read-out: α4β7, Madcam IC50. The method, then: α4β7-K562 Cell Adhesion Assay (α4β7 Mediated Adhesion/MAdCAM-1)
M2 anti-FLAG antibody coated 96-well plates (Sigma) were coated for 1 hour at 4° C. with 2-8 μl/well recombinant FLAG-hMAdCAM-1 contained in 100 μL of Dulbecco's PBS, pH 7.4, with 1% BSA and 1 mM Mn^2+ (PBS-BSA-Mn). Plates were washed once with PBS-BSA-Mn. Buffer was removed and compounds to be tested (50 μL) were added at 2 times concentration. Stably transfected K562 cells expressing human α4β7 integrin, (50 μL at 2×10^6/mL) that had been labeled with 100 μg/mL carboxymethyl fluorescein diacetate succinimidyl ester (CFDA-SE; Molecular Probes) for 15 min at 37° C. were added to each well and allowed to adhere for 1 h at room temperature. Plates were washed 4 times in PBS-BSA-Mn and then cells were lysed for 2 minutes by addition of 100 μL of PBS without Ca, Mg supplemented with 0.1 M NaOH. The plate was read on a 96-well fluorescent plate reader at 485 nm excitation and 530 nm emission.

The test system of experiment [2] is heterotopic heart allograft. The note with it: hyperlipidemic rabbit; cited from earlier work.
Experiment [3] has as its system oxazolone-induced contact hypersensitivity. The note with it: 6 mg/kg, sc; compared with α4 antibody PS/2; cited from earlier work.
The target of experiment [4] is T1, α4β1. The note with it: cited from earlier work.

Where two headings read alike, the source gives them in different places.

T1 sequence (P05556 21-798, one chain of several): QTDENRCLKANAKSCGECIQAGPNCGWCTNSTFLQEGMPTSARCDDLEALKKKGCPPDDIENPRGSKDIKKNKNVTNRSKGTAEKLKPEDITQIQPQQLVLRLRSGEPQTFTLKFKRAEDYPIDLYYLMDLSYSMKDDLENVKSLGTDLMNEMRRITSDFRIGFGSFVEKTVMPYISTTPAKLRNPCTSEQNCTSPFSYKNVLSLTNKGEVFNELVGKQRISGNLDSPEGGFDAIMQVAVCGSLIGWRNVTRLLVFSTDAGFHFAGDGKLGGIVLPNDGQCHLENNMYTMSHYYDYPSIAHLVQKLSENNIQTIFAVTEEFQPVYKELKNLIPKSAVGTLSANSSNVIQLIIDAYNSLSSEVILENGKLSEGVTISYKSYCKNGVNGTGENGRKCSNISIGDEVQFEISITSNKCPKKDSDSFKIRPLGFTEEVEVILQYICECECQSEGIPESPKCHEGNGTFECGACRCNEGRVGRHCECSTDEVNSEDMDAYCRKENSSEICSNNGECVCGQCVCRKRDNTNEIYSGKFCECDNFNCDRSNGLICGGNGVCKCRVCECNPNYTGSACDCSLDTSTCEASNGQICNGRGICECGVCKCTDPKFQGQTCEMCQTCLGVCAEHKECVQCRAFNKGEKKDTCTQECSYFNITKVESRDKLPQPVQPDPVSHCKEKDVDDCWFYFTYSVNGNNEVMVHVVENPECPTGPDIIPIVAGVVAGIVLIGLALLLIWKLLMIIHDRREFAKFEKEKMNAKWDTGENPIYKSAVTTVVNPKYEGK

`COc1cccc(OC)c1-c1ccc(C[C@H](NC(=O)[C@@H]2CCc3nnc(Cc4ccccc4)n32)C(=O)O)cc1` [Cpd 13, 2-(S)-[(3-Benzyl-6,7-dihydro-5H-pyrrolo[2,1-c][1,2,4]triazole-5-(S)-carbonyl)-amino]-3-(2′,6′-dimethoxy-biphenyl-4-yl)-propionic acid]: the IC50 (usually the concentration that gives 50% inhibition) on α4β1 [1] turned out to be 1190 nM; at human α4β7 integrin it was 320 nM.

With `COc1cccc(OC)c1-c1ccc(C[C@H](NC(=O)[C@@H]2CCc3nnc(Cc4ccsc4)n32)C(=O)O)cc1` [Cpd 15, 3-(2′,6′-Dimethoxy-biphenyl-4-yl)-2-(S)-[(3-thiophen-3-ylmethyl-6,7-dihydro-5H-pyrrolo[2,1-c][1,2,4]triazole-5-(S)-carbonyl)-amino]-propionic acid], the IC50 at α4β1 [1] was 710 nM; at human α4β7 integrin, 90 nM.

As to `COc1cccc(OC)c1-c1ccc(CC(NC(=O)C2CCc3nnc(Cc4c[nH]c5ccccc45)n32)C(=O)O)cc1` (stereo not shown) [Cpd 16, 3-(2′,6′-Dimethoxy-biphenyl-4-yl)-2-{[3-(1H-indol-3-ylmethyl)-6,7-dihydro-5H-pyrrolo[2,1-c][1,2,4]triazole-5-carbonyl]-amino}-propionic acid], the IC50 was over 5000 nM at α4β1 [1] and 40 nM at human α4β7 integrin.

Consider `COc1cnn(C)c(=O)c1-c1ccc(C[C@H](NC(=O)[C@@H]2CCc3nnc(Cc4ccccc4)n32)C(=O)O)cc1` [Cpd 17, 2-(S)-[(3-Benzyl-6,7-dihydro-5H-pyrrolo[2,1-c][1,2,4]triazole-5-(S)-carbonyl)-amino]-3-[4-(5-methoxy-2-methyl-3-oxo-2,3-dihydro-pyridazin-4-yl)-phenyl]-propionic acid], for which the figures for the IC50 at α4β1 [1] and at human α4β7 integrin were 640 nM and 400 nM, respectively.

With `O=C(Nc1ccc(C[C@H](NC(=O)[C@@H]2CCc3n[nH]c(=O)n32)C(=O)O)cc1)c1c(Cl)cccc1Cl` [Cpd 18, 3-[4-(2,6-Dichloro-benzoylamino)-phenyl]-2-(S)-[(3-oxo-2,5,6,7-tetrahydro-3H-pyrrolo[2,1-c][1,2,4]triazole-5-(S)-carbonyl)-amino]-propionic acid], the values for the IC50 on α4β1 [1] and at human α4β7 integrin were 850 nM and 90 nM, respectively.

As for `O=C(Nc1ccc(C[C@H](NC(=O)[C@@H]2CCc3nn(Cc4ccccc4)c(=O)n32)C(=O)O)cc1)c1c(Cl)cccc1Cl` [Cpd 19, 2-(S)-[(2-Benzyl-3-oxo-2,5,6,7-tetrahydro-3H-pyrrolo[2,1-c][1,2,4]triazole-5-(S)-carbonyl)-amino]-3-[4-(2,6-dichloro-benzoylamino)-phenyl]-propionic acid], the IC50 on α4β1 [1] was over 5000 nM; on human α4β7 integrin, 200 nM.

With `O=C(Nc1ccc(C[C@H](NC(=O)[C@@H]2CCc3n[nH]c(=O)n32)C(=O)O)cc1)c1c(Cl)cncc1Cl` [Cpd 20, 3-{4-[(3,5-Dichloro-pyridine-4-carbonyl)-amino]-phenyl}-2-(S)-[(3-oxo-2,5,6,7-tetrahydro-3H-pyrrolo[2,1-c][1,2,4]triazole-5-(S)-carbonyl)-amino]-propionic acid], the values for the IC50 at α4β1 [1] and at human α4β7 integrin were 450 nM and 50 nM, respectively.

Turning to `O=C(Nc1ccc(C[C@H](NC(=O)[C@@H]2CCc3nn(Cc4ccccc4)c(=O)n32)C(=O)O)cc1)c1c(Cl)cncc1Cl` [Cpd 21, 2-(S)-[(2-Benzyl-3-oxo-2,5,6,7-tetrahydro-3H -pyrrolo[2,1-c][1,2,4]triazole-5-(S)-carbonyl)-amino]-3-{4-[(3,5-dichloro-pyridine-4-carbonyl)-amino]-phenyl}-propionic acid], the IC50 at α4β1 [1] is over 5000 nM; at human α4β7 integrin, 780 nM.

For Phenylacetyl-Leu-Asp-Phe-D-Pro-NH2, the “efficacy in heart allograft model” value in experiment [2] is “effective”. Moreover, the “efficacy in contact hypersensitivity” value in experiment [3] was “efficacy similar to the α4 antibody PS/2”. Moreover, on α4β1 [4], the IC50 was 2000 nM.

Source of the values: patent publication US7618983B2, “Bicyclic triazole α4 integrin inhibitors” (Janssen Pharmaceutica, N.V., priority 2004, dated 2009).
